{"source": "patent EP3130339A1", "about": "“A COMPOUND FOR USE IN THE TREATMENT OF COMORBID ANXIETY DISORDER AND DEPRESSION DISORDER” (Aché Laboratórios Farmacêuticos S.A., priority 2015, dated 2017)", "assay_type_in_all_cases": "in vivo", "key": {"mice (RJ:NMRI, males)": {"tested_on": "mice (RJ:NMRI, males)", "assay": "Bright/dark box test (clear/dark transition test)", "method": "This model, also known as clear/dark transition test, is characterized as a model of conflict, based on the natural tendency to explore new environments versus avoidance of doing so, due to the potential possibility of the presence of aversive stimuli. It is an animal model based on independent behavior of conditioning, therefore, there is no need of learning. In rodents, this model is grounded in their natural aversion to excessively clear environments. This aversion is measured from the ansiogenic component expressed by lower exposure of the animal to the clear compartment.\nThe method employed followed the procedure described by Crawley and Goodwin (Pharmacol. Biochem. Behav. 1981, 15, 695-699).\nThe animals were placed on the clear field of a box comprising two compartments, one being illuminate and open (25 x 27 x 27 cm) and the other being dark and close (20 x 27 x 27 cm). Data on the length of stay in each compartment were collected over the three-minute test.\nThis test aimed at obtaining a comparison profile of response of Compound (A) (3-(2-(-4-(2-methoxyphenyl)piperazin-1-yl)ethyl)quinazolin-4(3H)-one and Compound (B) 3-(2-(4-(2-cyanophenyl)piperazin-1-yl)ethyl)quinazolin-4(3H)-one with known compounds that act by different mechanisms. The comparative compounds were alprazolam (benzodiazepine), paroxetine (ISRS-type antidepressant), venlafaxine (IRSN-type antidepressant) and agomelatine (antidepressant that acts on melatonin and serotonin 5-HT2C receptor). The following doses were employed in this study: Table 1: Tested compounds, concentrations and route of administration.\nIn this blind study, ten mice (RJ:NMRI, males) were employed per group. Clobazam (12 mg/Kg, i.p. route) was administered under the same study conditions as the reference compound. All compounds were administered 30 minutes before the test.\nThe test data of the response of substances were analyzed comparing the groups treated with the control vehicle using one-way ANOVA followed by post-hoc analysis of Dunnett's test. The data of the reference substance obtained were analyzed using unpaired Student's t test."}, "Mice [1]": {"tested_on": "Mice", "assay": "Non-precipitated withdrawal test", "conditions": "mouse, in vivo", "excerpt": "This test aims at assessing how the sudden cessation of the administration of a medicine can be associated with the occurrence of withdrawal identifiable symptoms. The types of symptoms examined are feed changes, weight gain, body temperature and the occurrence of one or behavioral symptoms and others, such as tremor, teeth chattering, wet dog body-shaking, diarrhea or piloerection. The triggering of these signs is a first sign that the substance induces dependence after repeated administration.\nThe method employed followed the procedure described by Goudie and Leathley (Psychopharmacology 1991, 103: 529-537).\nTwo mice per cage received two administrations per day (approximately 10:00 hours and 16:00 hours) of the test substance continuously during 19 days (day 1 to day 19), with the last administration occurring next to 10:00 hours of the 20th day. Control animals received the same number of administrations of vehicle. […] During the discontinuation phase, all animals received administration of vehicle once a day.\nAdditionally to the observations made after discontinuing the medicines, the same measures were taken at day 1 and day 10 of treatment, in addition to the 3 last days (days 18 to 20) immediately prior to administration of the dose in the morning to assess the effects of medicines before discontinuation. After discontinuation, the first observation was performed 24 hours after the last administration and, from then on, every 24 hours (days 21 to 28).\nFor daily measurements, the animals were evaluated with respect to behavioral changes during 5 minutes (two animals simultaneously observed). Then, their body weights and rectal temperatures were measured. Then, they received the proper treatment and were returned to their cages.\nThe leftover food in their supporters was weighed immediately after all animals return to their cages (only in the mornings), and food consumption in the previous 24 hours was determined.\nThe body weights, feed consumption and rectal temperatures were also measured 24 hours before the first administration, as reference values. The treated groups were homogenized with regard to body weights on the day preceding the first administration of the tested substances.\nCompound (A) (3-(2-(-4-(2-methoxyphenyl)piperazin-1-yl)ethyl)quinazolin-4 (3H)-one) was evaluated in 3 doses (3, 10 and 30 mg/kg) administered orally (p.o.) and compared to the vehicle (control group).\nChlordiazepoxide (64 mg/kg, p.o.) was administered under the same experimental conditions, and was employed as reference substance in the test.\nParoxetine (15 and 30 mg/kg p.o.) was administered under the same experimental conditions and was used as comparative substance.\nThe test was blinded. Data were analyzed by comparing substances with their control vehicles employing one-way ANOVA with the group as a factor followed by post-hoc Dunnett tests. Data with the reference substance were analyzed using unpaired Student's t test."}, "Mice [2]": {"tested_on": "Mice", "assay": "Sphere hiding test", "method": "This test is based on the natural aversive behavior to glass and marble of rodents, where the presence of these objects triggers the action of burying (hiding). In this test, there are potential behavioral changes of medicines that may promote an ansiogenic or anxiolytic profile. This is determined by the increase or decrease of the behavior of hiding glass spheres (\"marbles\") that are randomly distributed on the surface of a box lined with sawdust. The increase of the number of covered balls is an indicative of anxiety, since it is supposed to represent a foreign agent to the animal, whose presence may pose threat. The administration of anxiolytics medicines decreases the number of spheres buried in non-sedative doses.\nThe method employed followed the procedure described by Broekkamp et al. (Eur. J. Pharmacol., 1986, 126, 223-229).\nMice were individually placed in transparent plastic cages (33 x 21 x 18 cm), with the floor covered by a 5 cm layer of sawdust and 25 glass spheres grouped in the center of the cage. The cage was covered with a perforated plastic cover. Each test cage, along with the glass spheres, were previously impregnated with \"mouse odor\", and a group of 10 mice was left inside for 15 minutes.\nThe number of glass spheres covered with sawdust (2/3 or more of the surface) was counted at the end of the 30 minutes of the test.\nEach study group consisted of 12 mice. The test was partially blind (substances tested versus vehicle of the tested substances).\nThis test aimed at obtaining a comparison profile of response of Compound (A) (3-(2-(-4-(2-methoxyphenyl)piperazin-1-yl) ethyl) quinazolin-4 (3H) -one and Compound (B) (3-(2-(4-(2-cyanophenyl)piperazin-1-yl)ethyl)quinazolin-4(3H)-one) with known compounds that act by different mechanisms. The comparative compounds used were alprazolam (benzodiazepine) and paroxetine (ISRS-type antidepressant). These compounds were tested in the following doses: Table 3: Compounds tested, concentrations employed and route of administration.\nFluoxetine (ISRI antidepressant) was used as the positive control substance in the test, and was administered at 32 mg/kg (i.p.).\nQuantitative data for the tested substances (number of glass spheres coated with sawdust) were evaluated by comparison with the treated groups using one-way ANOVA followed by planned comparisons against the appropriate vehicles. Data with fluoxetine were compared to the vehicle control using unpaired Student's t test."}}, "note": "Several values for one entry are separate records, joined by “and”; a condition that tells them apart may be missing. Equal values may be shown once.", "data": [{"smiles": "Fc1ccc([C@@H]2CCNC[C@H]2COc2ccc3c(c2)OCO3)cc1", "note": "[Paroxetine, paroxetine]", "values": [{"measurement": "Time spent in the clear compartment compared to vehicle %", "setting": "mice (RJ:NMRI, males); 4 mg/Kg i.p., 30 minutes before the test", "result": "+15%"}, {"measurement": "Time spent in the clear compartment (seconds) (mean ± mean standard error)", "setting": "mice (RJ:NMRI, males); 4 mg/Kg i.p., 30 minutes before the test, three-minute test", "result": "84.6 ± 7.4", "unit": "s"}, {"measurement": "Time spent in the clear compartment compared to vehicle %", "setting": "mice (RJ:NMRI, males); 8 mg/Kg i.p., 30 minutes before the test", "result": -6, "unit": "%"}, {"measurement": "Time spent in the clear compartment (seconds) (mean ± mean standard error)", "setting": "mice (RJ:NMRI, males); 8 mg/Kg i.p., 30 minutes before the test, three-minute test", "result": "69.3 ± 5.9", "unit": "s"}, {"measurement": "Time spent in the clear compartment compared to vehicle %", "setting": "mice (RJ:NMRI, males); 16 mg/Kg i.p., 30 minutes before the test", "result": -13, "unit": "%"}, {"measurement": "Time spent in the clear compartment (seconds) (mean ± mean standard error)", "setting": "mice (RJ:NMRI, males); 16 mg/Kg i.p., 30 minutes before the test, three-minute test", "result": "63.8 ± 8.2", "unit": "s"}, {"measurement": "withdrawal syndrome after an extended administration regimen", "setting": "Mice [1]; po", "result": "induces mild withdrawal syndrome"}, {"measurement": "amount of food consumed", "setting": "Mice [1]; po, 30 mg/kg", "result": "significant increase in the amount of food consumed"}, {"measurement": "body weight and food consumption", "setting": "Mice [1]; po, 30 mg/kg", "result": "significantly induced weight loss and reduction of food consumption"}, {"measurement": "Number of Hidden Spheres Compared to vehicle control %", "setting": "Mice [2]; 1.0 mg/kg i.p.", "result": -56, "unit": "%"}, {"measurement": "Number of Hidden Spheres (mean ± mean standard error)", "setting": "Mice [2]; 1.0 mg/kg i.p., 25 glass spheres, counted at the end of 30 minutes", "result": "8,4 ± 2,3"}]}, {"smiles": "Cc1nnc2n1-c1ccc(Cl)cc1C(c1ccccc1)=NC2", "note": "[Alprazolam, alprazolam]", "values": [{"measurement": "Time spent in the clear compartment (seconds) (mean ± mean standard error)", "setting": "mice (RJ:NMRI, males); mouse, in vivo", "result": "103.9 ± 11.5 s and 126.9 ± 10.1 s and 112.7 ± 15.5 s"}, {"measurement": "amount of food consumed", "setting": "Mice [1]", "result": "significant reduction in the amount of food consumed on the first day of abstinence"}, {"measurement": "body weight, amount of food consumed and rectal temperature (the three studied parameters)", "setting": "Mice [1]", "result": "showed no significant changes"}, {"measurement": "withdrawal syndrome after an extended administration regimen", "setting": "Mice [1]; po", "result": "induces withdrawal syndrome"}, {"measurement": "Number of Hidden Spheres (mean ± mean standard error)", "setting": "Mice [2]; mouse, in vivo", "result": "1,6 ± 1,4"}, {"measurement": "Number of Hidden Spheres Compared to vehicle control %", "setting": "Mice [2]; mouse, in vivo", "result": -92, "unit": "%"}]}]}
